Results reported in US11912723B2, “KRAS modulators and uses thereof” (Quanta Therapeutics, Inc., priority 2022, dated 2024).

Legend:
[1] = target: T1, GST-tagged KRAS G12D (2-169) (Homo sapiens, UniProt P01116, G12D); assay: Nucleotide exchange assay (NEA), HTRF of SOS-mediated GTP-DY-647P1 binding; assay type: biochemical; settings: 5 nM GST-KRAS G12D, 20 nM SOScat, 150 nM GTP; compound 1 h at RT
T1 construct: GST-tagged KRAS^G12D (2-169, Reaction Biology, MSC-11-539); purchased Reaction Biology MSC-11-539 (KRAS G12D); MSC-11-502 (SOS1cat)
T1 sequence (P01116 2-169 isoform P01116-2 G12D): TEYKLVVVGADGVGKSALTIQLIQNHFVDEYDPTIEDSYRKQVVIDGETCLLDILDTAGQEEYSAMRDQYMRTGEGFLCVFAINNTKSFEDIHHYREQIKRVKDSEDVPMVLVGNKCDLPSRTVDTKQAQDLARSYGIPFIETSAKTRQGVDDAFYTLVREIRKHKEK
Procedure, shortened: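 SOS1cat (564-1049)-driven loading of GTP-DY-647P1 onto KRAS G12D, read by HTRF with anti-GST Tb cryptate donor; compound preincubated with KRAS 1 h at RT. Final 5 nM KRAS, 20 nM SOScat, 150 nM GTP, pH 7.3 HEPES buffer; read up to 90 min at RT. Blanked to no-SOS1; 4-parameter fit of % inhibition.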

KRAS G12D/RAF1 = target: T2, KRAS G12D/RAF1 (Homo sapiens, UniProt P01116, G12D); assay: Protein-protein interaction (PPI) HTRF assay KRAS G12D/RAF1; assay type: binding; settings: KRAS G12D/RAF1, GppNHp-loaded KRAS; 30 minutes pre-incubation
T2 construct: KRAS (1-169) proteins were expressed in E. coli at 18° C; His6-MBP (N, cleaved yes); made in house; host or cells: E. coli
T2 sequence (P01116 1-169 isoform P01116-2 G12D): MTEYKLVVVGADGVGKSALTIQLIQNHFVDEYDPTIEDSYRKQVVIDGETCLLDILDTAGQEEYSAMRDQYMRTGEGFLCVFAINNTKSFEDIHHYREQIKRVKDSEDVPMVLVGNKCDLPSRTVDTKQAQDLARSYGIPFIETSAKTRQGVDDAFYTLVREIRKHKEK
Procedure, shortened: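 Biotinylated GppNHp-loaded RAS (1-169) on streptavidin-d2 acceptor and His-RAF1 RBD (52-131) on anti-His Tb donor, each prepared at 16 nM in pH 7.5 Tris buffer. Compound preincubated with RAS 30 min, then RAF1 added for 1 h at room temperature. IC50 from HTRF 665/615 ratio, normalized to no compound (0%) and untagged RAF1 (100%).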

OC1CCCN(c2nc(OC[C@@]34CCCN3C[C@H](F)C4)nc3c2COC2(CCc4c(Cl)cccc42)C3)CC1 (mixture of isomers) [Compound 6, 1-[4′-chloro-2-[[rac-(2R,8S)-2-fluoro-1,2,3,5,6,7-hexahydropyrrolizin-8-yl]methoxy]spiro[5,8-dihydropyrano[4,3-d]pyrimidine-7,1′-indane]-4-yl]azepan-4-ol]
IC50 [1]: 1 to 20 µM | IC50 (KRAS G12D/RAF1): > 100 µM

CN(C)C(=O)c1cc2n(n1)CCCN(c1nc(OC[C@@]34CCCN3C[C@H](F)C4)nc3c1COC1(CCCc4c(Cl)cc(O)cc41)C3)C2 (mixture of isomers) [Compound 43, 5-[5′-chloro-7′-hydroxy-2-[[rac-(2R,8S)-2-fluoro-1,2,3,5,6,7-hexahydropyrrolizin-8-yl]methoxy]spiro[5,8-dihydropyrano[4,3-d]pyrimidine-7,1′-tetralin]-4-yl]-N,N-dimethyl-4,6,7,8-tetrahydropyrazolo[1,5-a][1,4]diazepine-2-carboxamide]
IC50 [1]: 0.01 to 0.1 µM | IC50 (KRAS G12D/RAF1): 10 to 100 µM

C=C1CN2CCCC2(COc2nc3c(c(N4CCCn5nc(C(=O)N(C)C)c(Cl)c5C4)n2)CO[C@@]2(CCc4c(Cl)cccc42)C3)C1 (mixture of isomers) [Compound 54, 3-chloro-N,N-dimethyl-5-[rac-(7S)-4′-chloro-2-[(6-methylene-2,3,5,7-tetrahydro-1H-pyrrolizin-8-yl)methoxy]spiro[5,8-dihydropyrano[4,3-d]pyrimidine-7,1′-indane]-4-yl]-4,6,7,8-tetrahydropyrazolo[1,5-a][1,4]diazepine-2-carboxamide]
IC50 [1]: < 0.01 µM | IC50 (KRAS G12D/RAF1): 10 to 100 µM

Oc1ccc2c(c1)C1(CCC2)Cc2nc(OC[C@@]34CCCN3C[C@H](F)C4)nc(N3CCCCCC3)c2CO1 (single isomer, unassigned) [Compound 7]
IC50 [1]: 1 to 20 µM | IC50 (KRAS G12D/RAF1): > 100 µM

Oc1ccc2c(c1)C1(CCC2)Cc2nc(OC[C@@]34CCCN3C[C@H](F)C4)nc(N3CCCCCC3)c2CO1 (single isomer, unassigned) [Compound 8]
IC50 [1]: 0.1 to 1 µM | IC50 (KRAS G12D/RAF1): > 100 µM

O=C1NC(=O)C2(CCCN(c3nc(OC[C@@]45CCCN4C[C@H](F)C5)nc4c3COC3(CCc5c(Cl)cccc53)C4)C2)N1 (single isomer, unassigned) [Compound 24A, (5*)-9-[(7*)-4′-chloro-2-[[(2R,8S)-2-fluoro-1,2,3,5,6,7-hexahydropyrrolizin-8-yl]methoxy]spiro[5,8-dihydropyrano[4,3-d]pyrimidine-7,1′-indane]-4-yl]-1,3,9-triazaspiro[4.5]decane-2,4-dione]
IC50 [1]: 0.01 to 0.1 µM | IC50 (KRAS G12D/RAF1): 10 to 100 µM

F[C@H]1CN2CCC[C@@]2(COc2nc3c(c(N4CCCCCC4)n2)COC2(CCc4c(Cl)cccc42)C3)C1 (stereo partly drawn) [Compound 1, 4′-(azepan-1-yl)-4-chloro-2′-(((2R,7aS)-2-fluorotetrahydro-1H-pyrrolizin-7a(5H)-yl)methoxy)-2,3,5′,8′-tetrahydrospiro[indene-1,7′-pyrano[4,3-d]pyrimidine]]
IC50 [1]: 1 to 20 µM | IC50 (KRAS G12D/RAF1): > 100 µM

F[C@H]1CN2CCC[C@@]2(COc2nc3c(c(N4C[C@H]5CC[C@@H](C4)N5)n2)COC2(CCc4c(Cl)cccc42)C3)C1 (stereo partly drawn) [Compound 2, 4′-((1R,5S)-3,8-diazabicyclo[3.2.1]octan-3-yl)-4-chloro-2′-(((2R,7aS)-2-fluorotetrahydro-1H-pyrrolizin-7a(5H)-yl)methoxy)-2,3,5′,8′-tetrahydrospiro[indene-1,7′-pyrano[4,3-d]pyrimidine]]
IC50 [1]: 0.01 to 0.1 µM | IC50 (KRAS G12D/RAF1): 10 to 100 µM

OC1CCCN(c2nc(OC[C@@]34CCCN3C[C@H](F)C4)nc3c2COC2(CCCc4ccc(Br)cc42)C3)CC1 (stereo partly drawn) [Compound 4, 1-[7′-bromo-2-[[(2R,8S)-2-fluoro-1,2,3,5,6,7-hexahydropyrrolizin-8-yl]methoxy]spiro[5,8-dihydropyrano[4,3-d]pyrimidine-7,1′-tetralin]-4-yl]azepan-4-ol]
IC50 [1]: 1 to 20 µM | IC50 (KRAS G12D/RAF1): > 100 µM

F[C@H]1CN2CCC[C@@]2(COc2nc3c(c(N4CCCCCC4)n2)COC2(CCCc4c(Br)cccc42)C3)C1 (stereo partly drawn) [Compound 5, 4-(azepan-1-yl)-5′-bromo-2-[[(2R,8S)-2-fluoro-1,2,3,5,6,7-hexahydropyrrolizin-8-yl]methoxy]spiro[5,8-dihydropyrano[4,3-d]pyrimidine-7,1′-tetralin]]
IC50 [1]: 1 to 20 µM | IC50 (KRAS G12D/RAF1): 10 to 100 µM

F[C@H]1CN2CCC[C@@]2(COc2nc3c(c(N4C[C@H]5CC[C@@H](C4)N5)n2)COC2(CCCc4c(Br)cccc42)C3)C1 (stereo partly drawn) [Compound 10, 5′-bromo-4-(3,8-diazabicyclo[3.2.1]octan-3-yl)-2-[[(2R,8S)-2-fluoro-1,2,3,5,6,7-hexahydropyrrolizin-8-yl]methoxy]spiro[5,8-dihydropyrano[4,3-d]pyrimidine-7,1′-tetralin]]
IC50 [1]: 0.01 to 0.1 µM | IC50 (KRAS G12D/RAF1): > 100 µM

Oc1ccc2c(c1)C1(CCC2)Cc2nc(OC[C@@]34CCCN3C[C@H](F)C4)nc(N3CCCC(O)CC3)c2CO1 (stereo partly drawn) [Compound 14, 2-[[(2S,8R)-2-fluoro-1,2,3,5,6,7-hexahydropyrrolizin-8-yl]methoxy]-4-(4-hydroxyazepan-1-yl)spiro[5,8-dihydropyrano[4,3-d]pyrimidine-7,4′-tetralin]-6′-ol]
IC50 [1]: 1 to 20 µM | IC50 (KRAS G12D/RAF1): > 100 µM

OC1CCCN(c2nc(OC[C@@]34CCCN3C[C@H](F)C4)nc3c2COC2(CCCc4c(Cl)cccc42)C3)CC1 (stereo partly drawn) [Compound 15, 1-[5′-chloro-2-[[(2R,8S)-2-fluoro-1,2,3,5,6,7-hexahydropyrrolizin-8-yl]methoxy]spiro[5,8-dihydropyrano[4,3-d]pyrimidine-7,1′-tetralin]-4-yl]azepan-4-ol]
IC50 [1]: 1 to 20 µM | IC50 (KRAS G12D/RAF1): > 100 µM

N#CC1CCCN(c2nc(OC[C@@]34CCCN3C[C@H](F)C4)nc3c2COC2(CCc4c(Cl)cccc42)C3)CC1 (stereo partly drawn) [Compound 16, 1-(4-chloro-2′-(((2R,7aS)-2-fluorotetrahydro-1H-pyrrolizin-7a(5H)-yl)methoxy)-2,3,5′,8′-tetrahydrospiro[indene-1,7′-pyrano[4,3-d]pyrimidin]-4′-yl)azepane-4-carbonitrile]
IC50 [1]: 1 to 20 µM | IC50 (KRAS G12D/RAF1): > 100 µM

OC1CCCN(c2nc(OC[C@@]34CCCN3C[C@H](F)C4)nc3c2COC2(CCCc4ccc(Cl)cc42)C3)CC1 (stereo partly drawn) [Compound 17, 1-(7-chloro-2′-(((2R,7aS)-2-fluorotetrahydro-1H-pyrrolizin-7a(5H)-yl)methoxy)-3,4,5′,8′-tetrahydro-2H-spiro[naphthalene-1,7′-pyrano[4,3-d]pyrimidin]-4′-yl)azepan-4-ol]
IC50 [1]: 1 to 20 µM | IC50 (KRAS G12D/RAF1): 10 to 100 µM

F[C@H]1CN2CCC[C@@]2(COc2nc3c(c(N4CCC=CCC4)n2)COC2(CCc4c(Cl)cccc42)C3)C1 (stereo partly drawn) [Compound 18, 4′-chloro-2-[[(2R,8S)-2-fluoro-1,2,3,5,6,7-hexahydropyrrolizin-8-yl]methoxy]-4-(2,3,6,7-tetrahydroazepin-1-yl)spiro[5,8-dihydropyrano[4,3-d]pyrimidine-7,1′-indane]]
IC50 [1]: > 20 µM | IC50 (KRAS G12D/RAF1): 10 to 100 µM

CN(C)C(=O)c1cc2n(n1)CCCN(c1nc(OC[C@@]34CCCN3C[C@H](F)C4)nc3c1CO[C@]1(CCc4c(Cl)cccc41)C3)C2 [Compound 27B, 5-[(7R)-4′-chloro-2-[[(2R,8S)-2-fluoro-1,2,3,5,6,7-hexahydropyrrolizin-8-yl]methoxy]spiro[5,8-dihydropyrano[4,3-d]pyrimidine-7,1′-indane]-4-yl]-N,N-dimethyl-4,6,7,8-tetrahydropyrazolo[1,5-a][1,4]diazepine-2-carboxamide]
IC50 [1]: < 0.01 µM | IC50 (KRAS G12D/RAF1): 10 to 100 µM

CN1Cc2c(nc(OC[C@@]34CCCN3C[C@H](F)C4)nc2N2CCCCCC2)C[C@]12CCc1c(Cl)cccc12 [Compound 28A, (7S)-4-(azepan-1-yl)-4′-chloro-2-[[(2R,8S)-2-fluoro-1,2,3,5,6,7-hexahydropyrrolizin-8-yl]methoxy]-6-methyl-spiro[5,8-dihydropyrido[4,3-d]pyrimidine-7,1′-indane]]
IC50 [1]: 1 to 20 µM | IC50 (KRAS G12D/RAF1): > 100 µM

N#CNC1CCCN(c2nc(OC[C@@]34CCCN3C[C@H](F)C4)nc3c2COC2(CCc4c(Cl)cccc42)C3)C1 (stereo partly drawn) [Compound 29, [1-[4′-chloro-2-[[(2R,8S)-2-fluoro-1,2,3,5,6,7-hexahydropyrrolizin-8-yl]methoxy]spiro[5,8-dihydropyrano[4,3-d]pyrimidine-7,1′-indane]-4-yl]-3-piperidyl]cyanamide]
IC50 [1]: 0.1 to 1 µM | IC50 (KRAS G12D/RAF1): 10 to 100 µM

CN(C)C(=O)c1cc2n(n1)CCCN(c1nc(OC[C@@]34CCCN3C[C@H](F)C4)nc3c1CN(C)C1(CCCc4ccc(O)cc41)C3)C2 (stereo partly drawn) [Compound 39, 5-[7′-hydroxy-6-methyl-2-[[(2R,8S)-2-fluoro-1,2,3,5,6,7-hexahydropyrrolizin-8-yl]methoxy]spiro[5,8-dihydropyrido[4,3-d]pyrimidine-7,1′-tetralin]-4-yl]-N,N-dimethyl-4,6,7,8-tetrahydropyrazolo[1,5-a][1,4]diazepine-2-carboxamide]
IC50 [1]: < 0.01 µM | IC50 (KRAS G12D/RAF1): > 100 µM
